Results taken from the SangsterLogP compilation.
One block for each molecule: values may come before it.

Tests used:
[1] = method code SF-AS, from DOI: 10.1021/jm00296a014, PMID: 5418493
[2] = method code SF-AS, from DOI: 10.1248/cpb.32.5003, PMID: 6534549
[3] = method code SF-AS, from Dallet, P.; Dubost, J.; Colleter, J.; Audry, E.; Creuzet, M. (1985). QSAR in a series of alpha-adrenolitic molecules: optimization of physicochemical parameters. Eur J Med Chem, 20(6)551-557.
[4] = method code SF-HPLC, from DOI: 10.1002/jps.10072, PMID: 11920751; settings: pH 7.4
[5] = method code SF-AS, from DOI: 10.1016/0378-5173(84)90231-x
[6] = method code SF-HPLC, from DOI: 10.1023/a:1015862319927, PMID: 2062808; settings: pH 7.4
[7] = not given; remark: listed apart in the source
[8] = method code SF-GLC, from DOI: 10.1016/j.chemosphere.2013.04.065, PMID: 23732011
[9] = method code SF-HPLC, from DOI: 10.1039/a702469j; settings: pH 7.0
[10] = method code SF-AS, from DOI: 10.1139/cjpp-75-12-1362, PMID: 9534947
[11] = not given; remark: listed apart in the source
[12] = method code SF-HPLC, from DOI: 10.1016/j.ejpb.2013.06.022, PMID: 23958327; settings: pH 6.0
[13] = not given; remark: listed apart in the source
[14] = not given; remark: listed apart in the source
[15] = not given; remark: listed apart in the source
[16] = method code SF-AS, from DOI: 10.1016/0045-6535(95)00267-c
[17] = method code SF-HPLC, from DOI: 10.1016/0378-5173(89)90028-8
[18] = method code SF-AS, from DOI: 10.1002/chin.198428254
[19] = method code SF-GLC, from DOI: 10.1016/0048-3575(76)90072-9
[20] = method code SF-RC, from DOI: 10.1016/s0969-8051(02)00326-8, PMID: 12234587; settings: pH 7.4
[21] = not given; remark: listed apart in the source
[22] = pH 7.4
[23] = method code SF-AS, from DOI: 10.1002/etc.5620180606
[24] = not given; remark: listed apart in the source
[25] = method code SF, from DOI: 10.1021/jm00237a002, PMID: 1133810; settings: pH 7.2
[26] = method code SF-RC, from Godoy, N.; Valle, L.; Mena, P.; Gil, M. (1989). Synthesis, labeling and biodistribution of 99mTc-labelled bromoimino diacetic acids. Nucleotecnica, 9(17)25-32.

Compound: O=C(O)C1c2ccccc2Sc2ccccc21
logP [1]: 2.57

Compound: COc1ccccc1NC(=O)Cc1ccccc1
logP [2]: 2.68

Compound: CC12OOC(CCC(=O)O)(C=C1CCC(=O)O)c1ccccc12 (stereo unspecified)
logP: 0.24

Compound: CCc1ccc(C=[N+]([O-])C(C)(C)C)cc1
logP [5]: 2.19

Compound: CCOP(=O)(NC(C)CC)Oc1cc(C)ccc1[N+](=O)[O-] (stereo unspecified)
logP [7]: 2.73

Compound: C=CCOc1ccc(OCC=C)cc1
logP [8]: 3.5

Compound: CCOP(=O)(OCC)C(C)(C)[N+]([O-])=Cc1cc[n+]([O-])cc1
logD [9]: -0.68

Compound: Cc1ncc(CO)c(/C=N/NC(=O)c2ccco2)c1O
logP [10]: 1.39

Compound: O=C(O)CCC12C=CC(CCC(=O)O)(OO1)c1ccccc12
logP: -0.13

Compound: O=C(O)C1c2ccccc2Oc2ccccc21
logP [1]: 2.23

Compound: CNc1ccc(C(=O)OCCN(C)C)cc1
logP [11]: 1.95

Compound: O=c1[nH]c2ccccc2n1C1=CCNCC1
logP [13]: 0.85

Compound: O=C(Cc1ccccc1)Nc1ccccc1[N+](=O)[O-]
logP [2]: 2.73

Compound: O=C(c1ccc(O)cc1)c1ccc(Cl)cc1
logP [14]: 4

Compound: Cc1ccc(C=[N+]([O-])C(C)(C)C)cc1
logP [5]: 1.74

Compound: Cc1cc(OCCNCC2CC(=O)c3ccccc3C2=O)c(C(C)C)cc1O (stereo unspecified)
logP [3]: 4.25

Compound: CCOP(=S)(NC(C)CC)Oc1cc(C)ccc1[N+](=O)[O-] (stereo unspecified)
logP [7]: 4.62

Compound: O=C(N/N=C/c1c(O)ccc2ccccc12)c1cccc(F)c1
logP [10]: 4.06

Compound: COc1ccc(Cc2nccc3cc(OC)c(OC)cc23)cc1OC
logP [15]: 2.95

Compound: CC1CCCCC1NC(=O)Nc1ccccc1 (stereo unspecified)
logP [16]: 3.09

Compound: CCOP(=O)(OCC)C(C)(C)[N+]([O-])=Cc1ccncc1
logD [9]: 0.32

Compound: O=C(NCCN1CCN2Cc3[nH]c4ccccc4c3CC2C1)c1ccccc1[N+](=O)[O-] (stereo unspecified)
logP [18]: 1.8

Compound: CN(C)c1ccc(-c2cc3ccc(I)cc3o2)cc1
logD [20]: 2.12

Compound: Cc1cccc2c1Cc1ccccc1-2
logP [21]: 4.97

Compound: CCOP(=O)(OCC)C(C)(C)[N+]([O-])=Cc1cccnc1
logD [9]: 0.41

Compound: Cc1ccc(Cl)c(Nc2ccccc2C(=O)O)c1Cl
logP [15]: 5.9

Compound: COc1ccc(C=[N+]([O-])C(C)(C)C)cc1
logP [5]: 1.21

Compound: Nc1ccccc1NC(=O)Cc1ccccc1
logP [2]: 1.45

Compound: N#CCN(CCO)c1ccc(N=Nc2nc3ccc([N+](=O)[O-])cc3s2)cc1
logP [23]: 4.08

Compound: CC12C=CC(C)(OO1)c1ccccc12
logP: 2.17

Compound: Oc1ccc(-c2cc3cc(I)ccc3o2)cc1
logD [20]: 2.97

Compound: Cc1c(N=C2NCCN2)ccc2c1NCCN2
logP [24]: 0.04

Compound: Cc1cc(C2CCCCC2)n(O)c(=O)c1
logD [12]: 2.3

Compound: Cc1c(N=C2NCCN2)ccc2c1NCCO2
logP [24]: 0.35

Compound: CN(C)c1ccc(-c2cc3cc(I)ccc3o2)cc1
logD [20]: 2.35

Compound: Nc1c(Cl)c(Cl)c(N)c2c1C(=O)c1ccccc1C2=O
logP [23]: 4.56

Compound: O=C(O)C1c2ccccc2-c2ccccc21
logP [1]: 2.8

Compound: Cc1c2ccccc2c(C)c2ccccc12
logP [21]: 5.25

Compound: O=c1[nH]c2ccccc2n1C1CCNCC1
logP [13]: 1.14

Compound: CC(C)Oc1cnc(NS(=O)(=O)c2ccccc2)nc1
logD [25]: 0.86

Compound: Nc1ccc(C(=O)N/N=C/c2c(O)ccc3ccccc23)cc1
logP [10]: 3.04

Compound: c1ccc2c3c([nH]c2c1)CN1CCNCC1C3 (stereo unspecified)
logP [18]: 0.36

Compound: COc1ccc(Oc2ccc(NC(=O)N(C)C)cc2)cc1
logP [16]: 2.54

Compound: O=c1[nH]c2cc(Cl)ccc2n1C1CCNCC1
logP [13]: 1.59

Compound: C=CCOc1cccc(OCC=C)c1
logP [8]: 3.8

Compound: C=CCOc1ccc(OCCC)cc1
logP [8]: 2.4

Compound: O=C(NCCN1CCN2Cc3[nH]c4ccccc4c3CC2C1)c1ccccc1 (stereo unspecified)
logP [18]: 1.52

Compound: c1ccc2c(c1)Cc1cc3ccccc3cc1-2
logP [21]: 5.75

Compound: CCN(CC)Cc1cc(Nc2ccnc3cc(Cl)ccc23)ccc1O
logP [15]: 4.2

Compound: CCCSP(=S)(OCC)Oc1ccc(SC)cc1 (stereo unspecified)
logP [7]: 4.9

Compound: Nc1c(Oc2ccc(CN3CCCCCC3=O)cc2)cc(O)c2c1C(=O)c1ccccc1C2=O
logP [23]: 5.3

Compound: Cc1c(N=C2NCCN2)ccc2nccnc12
logP [24]: 0.9

Next, values leading:

logP [3]: 1.64
Compound: CC(=O)Oc1ccc(OCCN(C)C)cc1C

logD [4]: 0.83
Compound: CCCCC(=O)OCC(COC(=O)CCCC)OCn1cnc2c(=O)[nH]c(N)nc21

logD [6]: 0.83
Compound: CC(C)C(=O)OCC1OC(n2cc(I)c(=O)[nH]c2=O)C1O (stereo unspecified)

logP [11]: 4.14
Compound: CCCCCNc1ccc(C(=O)OCCN(C)C)cc1

logD [12]: 2.9
Compound: CCOC(=O)O[C@]1(C(=O)COC(=O)CC)CC[C@H]2[C@@H]3CCC4=CC(=O)C=C[C@]4(C)[C@H]3[C@@H](O)C[C@@]21C

logD [6]: 1.38
Compound: COc1ccc(C(=O)OCC2OC(n3cc(I)c(=O)[nH]c3=O)CC2O)cc1 (stereo unspecified)

logD [6]: 1.24
Compound: O=C(OC[C@H]1O[C@@H](n2cc(I)c(=O)[nH]c2=O)C[C@@H]1O)c1ccc([N+](=O)[O-])cc1

logP [14]: 4.87
Compound: CCCCc1oc2ccccc2c1C(=O)c1ccc(O)cc1

logP [17]: 1.23
Compound: CCn1cc(C(=O)OC)c(=O)c2ccc(C)nc21

logP [19]: 3.37
Compound: CCOC(=O)CN(C(=O)CCl)c1ccccc1-c1ccccc1

logD [22]: -0.7
Compound: CSC[S@](=O)C[C@H](C)NC(=O)/C=C/c1c(C)[nH]c(=O)[nH]c1=O

logP [3]: 4.37
Compound: Cc1cc(OCCN(C)C)c(C(C)C)cc1OS(=O)(=O)CC12CCC(CC1=O)C2(C)C (stereo unspecified)

logD [12]: 5.6
Compound: CCOC(=O)c1ccc(C#Cc2ccc3c(c2)C(C)(C)CCS3)nc1

logD [25]: 1.14
Compound: CCCOc1cnc(NS(=O)(=O)c2ccccc2)nc1

logD [22]: 0.6
Compound: CCCCCSCS(=O)CC(CO)NC(=O)/C=C/c1c(C)[nH]c(=O)[nH]c1=O (stereo unspecified)

logP [26]: -0.11
Compound: Cc1cc(C)c(NC(=O)CN(CC(=O)O)CC(=O)O)c(C)c1Br

logP [16]: 4.1
Compound: CCCCN(C)C(=O)Nc1ccc(Cl)c(Cl)c1

logP [19]: 1.6
Compound: CCOC(=O)CN(C(=O)CCl)c1ccccc1

logP [17]: 1.43
Compound: CCN(CC)C(=O)COC(=O)c1cn(CC)c2nc(C)ccc2c1=O

logD [4]: -0.3
Compound: CCCC(=O)OCC(CO)OCn1cnc2c(=O)[nH]c(N)nc21 (stereo unspecified)

logD [25]: 1.41
Compound: CCCCOc1cnc(NS(=O)(=O)c2ccccc2)nc1

logP [26]: 0.28
Compound: Cc1ccc(Br)c(C)c1NC(=O)CN(CC(=O)O)CC(=O)O

logP [26]: -0.1
Compound: CCCCc1ccc(NC(=O)CN(CC(=O)O)CC(=O)O)cc1Br

logD [22]: -1.71
Compound: CSC[S@](=O)C[C@H](CO)NC(=O)/C=C/c1c(C)[nH]c(=O)[nH]c1=O

logP [17]: 2.2
Compound: CCCC(=O)OCOC(=O)c1cn(CC)c2nc(C)ccc2c1=O

logP [14]: 5.92
Compound: CCCCc1oc2ccccc2c1C(=O)c1cc(I)c(O)c(I)c1

logD [4]: -0.78
Compound: CC(=O)OCC(COC(C)=O)OCn1cnc2c(=O)[nH]c(N)nc21

logP [11]: 3.15
Compound: CCCNc1ccc(C(=O)OCCN(C)C)cc1

logP [19]: 2.75
Compound: CCOC(=O)CN(C(=O)CCl)c1ccccc1OC(C)C
